In patent publication US8273773B2 (priority 2008, dated 2012):
Where two headings read alike, the source gives them in different places.

What was measured:
[1] = target: T1, HCV polymerase (NS5B570n-Con1) (Hepatitis C virus genotype 1b, UniProt Q9WMX2); assay: biochemical; design: species or system HCV Con1 strain;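 also: recombinant His-tagged enzyme from E. coli, radiolabeled nucleotide incorporation into acid-insoluble RNA read by scintillation after filtration, no-enzyme background subtracted, activity relative to positive control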
T1 construct: contains a 21 amino acid deletion at the C-terminus relative to the full-length HCV polymerase; 6-histidine (N); made in house; host or cells: E. coli strain BL21(DE) pLysS (pET17b)

[2] = test system: HCV replicon cells (2209-23), genotype 1b replicon; assay: HCV Replicon Assay (Renilla luciferase reporter); assay type: cell-based, HCV genotype 1b replicon in human hepatoma Huh7 cells; conditions: 2209-23 cells, three days incubation
[3] = IC50 HCV NS5B RNA Polymerase Assay, values without asterisk, 20 nM NS5B570n-Con1 enzyme, 20 nM cIRES RNA template
[4] = IC50 HCV NS5B RNA Polymerase Assay (values with asterisk), values with asterisk: cIRES RNA template, 3 nM NS5B570n-Con1

Row | Structure (SMILES) | IC50 [1, 3] [nM] | melting point [°C] | further results
1 | CC(C)(C)c1cc(CCc2ccc(NS(C)(=O)=O)cc2)c(C(N)=O)c(-c2ccc[nH]c2=O)c1 [I-122, 4-tert-Butyl-2-[2-(4-methanesulfonylamino-phenyl)-ethyl]-6-(2-oxo-1,2-dihydro-pyridin-3-yl)-benzamide] | 3 | 170 to 172 | 
2 | COc1c(CCc2ccc(NS(C)(=O)=O)nc2)cc(-c2ccc[nH]c2=O)cc1C(C)(C)C [I-123] | 3 | 140 to 142 | 
3 | COc1c(CCc2ccc(NS(C)(=O)=O)cn2)cc(-c2ccc[nH]c2=O)cc1C(C)(C)C [I-124] | 3 | 131 to 133 | 
4 | COc1c(CCc2cnc(NS(C)(=O)=O)nc2)cc(-c2ccc[nH]c2=O)cc1C(C)(C)C [I-125] | 16 | 282 to 283 | 
5 | COc1c(/C=C/c2ccc(NS(C)(=O)=O)cc2)cc(-c2ccc[nH]c2=O)cc1C(C)(C)C [I-126, N-(4-{(E)-2-[3-tert-Butyl-2-methoxy-5-(2-oxo-1,2-dihydro-pyridin-3-yl)-phenyl]-vinyl}-phenyl)-methanesulfonamide] |  |  | IC50 ([2]; Hepatitis C virus, 72 h): 6 nM
6 | COc1c(CCc2ccc(NS(C)(=O)=O)nn2)cc(-c2ccc[nH]c2=O)cc1C(C)(C)C [I-127] | 4 | 218 to 220 | 
7 | COc1c(CCc2ccc(N)nn2)cc(-c2ccc[nH]c2=O)cc1C(C)(C)C [I-128] | 5 | 142 to 144 | 
8 | Cc1cc(C(=O)O)ccc1[N+](=O)[O-] [I-129] |  |  | IC50 ([1]; values without asterisk, 20 nM NS5B570n-Con1 enzyme, 20 nM cIRES RNA template, read-out: IC50 HCV NS5B RNA Polymerase Assay): 7 nM; IC50 [2]: 101 nM
9 | COc1c(CCc2cnc(NS(C)(=O)=O)cn2)cc(-c2ccc[nH]c2=O)cc1C(C)(C)C [I-133] | 16 | 282 to 283 | 
10 | CC(C)(C)c1cc(/C=C/c2ccc(NS(C)(=O)=O)cc2)c(O)c(-c2ccc[nH]c2=O)c1 [I-137] | 10 | 180 to 182 | 
11 | COc1c(/C=C(\C#N)c2ccc(NS(C)(=O)=O)cc2)cc(-c2ccc[nH]c2=O)cc1C(C)(C)C [I-138, N-(4-{(Z)-2-[3-tert-Butyl-2-methoxy-5-(2-oxo-1,2-dihydro-pyridin-3-yl)-phenyl]-1-cyano-vinyl}-phenyl)-methanesulfonamide] | 10 | 288 to 290 | 
12 | COc1c(/C=C(\C)c2ccc(NS(C)(=O)=O)cc2)cc(-c2ccc[nH]c2=O)cc1C(C)(C)C [I-139, N-(4-{(E)-2-[3-tert-Butyl-2-methoxy-5-(2-oxo-1,2-dihydro-pyridin-3-yl)-phenyl]-1-methyl-vinyl}-phenyl)-methanesulfonamide] | 8 | 292 to 294 | 
13 | Cc1ccc(-c2cc(C(C)(C)C)cc(/C=C/c3ccc(NS(C)(=O)=O)cc3)c2O)c(=O)[nH]1 [I-140] | 322 | 258 to 260 | 
14 | CC(C)(C)c1cc(/C=C/c2ccc(NS(C)(=O)=O)cc2)cc(-c2ccc[nH]c2=O)c1 [I-141, N-(4-{(E)-2-[3-tert-Butyl-5-(2-oxo-1,2-dihydro-pyridin-3-yl)-phenyl]-vinyl}-phenyl)-methanesulfonamide] | 26 | 260 to 262 | 
15 | COc1c(/C=C/c2ccc(NS(C)(=O)=O)cc2)cc(-c2cc(F)c[nH]c2=O)cc1C(C)(C)C [I-142, N-(4-{(E)-2-[3-tert-Butyl-5-(5-fluoro-2-oxo-1,2-dihydro-pyridin-3-yl)-2-methoxy-phenyl]-vinyl}-phenyl)-methanesulfonamide] |  |  | IC50 ([2]; Hepatitis C virus, 72 h): 78 nM
16 | COc1c(/C=C/c2ccccc2)cc(-c2ccc[nH]c2=O)cc1C(C)(C)C [I-144] | 11 | 183 to 185 | 
17 | CC(C)(C)c1cc(/C=C/c2ccc(NS(C)(=O)=O)cc2C#N)cc(-c2ccc[nH]c2=O)c1 [I-147, N-(4-{(E)-2-[3-tert-Butyl-5-(2-oxo-1,2-dihydro-pyridin-3-yl)-phenyl]-vinyl}-3-cyano-phenyl)-methanesulfonamide] | 2 | > 300 | 
18 | CC(C)(C)c1cc(/C=C/c2ccc(NS(C)(=O)=O)cc2)cc(-c2cc(F)c[nH]c2=O)c1 [I-148] | 6 | 210 to 212 | 

Row | Structure (SMILES) | IC50 [1, 3] [nM] | melting point [°C] | further results
19 | COc1c(/C=C/c2ccc(NS(C)(=O)=O)cc2C#N)cc(-c2ccc[nH]c2=O)cc1C(C)(C)C [I-150, N-(4-{(E)-2-[3-tert-Butyl-2-methoxy-5-(2-oxo-1,2-dihydro-pyridin-3-yl)-phenyl]-vinyl}-3-cyano-phenyl)-methanesulfonamide] | 3 | 266 to 268 | 
20 | COc1c(/C=C/c2ccc(NS(C)(=O)=O)cc2C#N)cc(-c2cc(F)c[nH]c2=O)cc1C(C)(C)C [I-151, N-(4-{(E)-2-[3-tert-Butyl-5-(5-fluoro-2-oxo-1,2-dihydro-pyridin-3-yl)-2-methoxy-phenyl]-vinyl}-3-cyano-phenyl)-methanesulfonamide] | 5 | 158 to 160 | 
21 | COc1c(/C=C/c2ccc(NS(C)(=O)=O)cc2CO)cc(-c2cc(F)c[nH]c2=O)cc1C(C)(C)C [I-187, N-(4-{(E)-2-[3-tert-Butyl-5-(5-fluoro-2-oxo-1,2-dihydro-pyridin-3-yl)-2-methoxy-phenyl]-vinyl}-3-hydroxymethyl-phenyl)-methanesulfonamide] |  |  | IC50 [1, 4]: 3 nM; IC50 ([2]; Hepatitis C virus, 72 h): 43.2 nM
22 | COc1c(CC(CN)c2ccc(NS(C)(=O)=O)cc2)cc(-c2ccc[nH]c2=O)cc1C(C)(C)C (stereo not shown) [I-191, N-(4-{1-Aminomethyl-2-[3-tert-butyl-2-methoxy-5-(2-oxo-1,2-dihydro-pyridin-3-yl)-phenyl]-ethyl}-phenyl)-methanesulfonamide] | 27 | 158 to 160 | 
23 | COc1c(CC(CN2CCOCC2)c2ccc(NS(C)(=O)=O)cc2)cc(-c2ccc[nH]c2=O)cc1C(C)(C)C (stereo not shown) [I-193] | 12 | 138 to 140 | 
24 | COc1c(CC(CN2CCC(F)(F)C2)c2ccc(NS(C)(=O)=O)cc2)cc(-c2ccc[nH]c2=O)cc1C(C)(C)C (stereo not shown) [I-195] | 18 | 133 to 135 | 
25 | COc1c(CC(C)(C#N)c2ccc(NS(C)(=O)=O)cc2)cc(-c2ccc[nH]c2=O)cc1C(C)(C)C (stereo not shown) [I-196, N-(4-{2-[3-tert-Butyl-2-methoxy-5-(2-oxo-1,2-dihydro-pyridin-3-yl)-phenyl]-1-cyano-1-methyl-ethyl}-phenyl)-methanesulfonamide] | 30 | 158 to 160 | 
26 | COc1c(CC(C)(CN)c2ccc(NS(C)(=O)=O)cc2)cc(-c2ccc[nH]c2=O)cc1C(C)(C)C (stereo not shown) [I-197, N-(4-{1-Aminomethyl-2-[3-tert-butyl-2-methoxy-5-(2-oxo-1,2-dihydro-pyridin-3-yl)-phenyl]-1-methyl-ethyl}-phenyl)-methanesulfonamide] | 84 | 240 to 242 | 
27 | CC(C)(CO)c1cc(CCc2ccc(NS(C)(=O)=O)cc2)c(O)c(-c2ccc[nH]c2=O)c1 [I-199, N-(4-{2-[2-Hydroxy-5-(2-hydroxy-1,1-dimethyl-ethyl)-3-(2-oxo-1,2-dihydro-pyridin-3-yl)-phenyl]-ethyl}-phenyl)-methanesulfonamide] | 13 | 118 to 120 | 
28 | COc1c(/C=C/c2ccc(NS(C)(=O)=O)cc2CO)cc(-c2ccc[nH]c2=O)cc1C(C)(C)C [I-205, N-(4-{(E)-2-[3-tert-Butyl-2-methoxy-5-(2-oxo-1,2-dihydro-pyridin-3-yl)-phenyl]-vinyl}-3-hydroxymethyl-phenyl)-methanesulfonamide] |  | 140 to 142 | IC50 [1, 4]: 2 nM
29 | COc1c(/C=C/c2ccccc2C(C)=O)cc(-c2ccc[nH]c2=O)cc1C(C)(C)C [I-243, 3-{3-[(E)-2-(2-Acetyl-phenyl)-vinyl]-5-tert-butyl-4-methoxy-phenyl}-1H-pyridin-2-one] |  |  | IC50 ([2]; Hepatitis C virus, 72 h): 208 nM
30 | COc1c(/C=C/c2ccc(NS(C)(=O)=O)cc2)cc(-c2ccc[nH]c2=O)cc1C1(Cl)CC1 [I-267] |  |  | IC50 ([2]; Hepatitis C virus, 72 h): 10.2 nM
31 | COc1c(/C=C/c2ccc(NS(C)(=O)=O)cc2)cc(-c2ccc[nH]c2=O)cc1C1(C#N)CC1 [I-268, N-(4-{(E)-2-[3-(1-Cyano-cyclopropyl)-2-methoxy-5-(2-oxo-1,2-dihydro-pyridin-3-yl)-phenyl]-vinyl}-phenyl)-methanesulfonamide] |  |  | IC50 ([2]; Hepatitis C virus, 72 h): 22 nM
32 | COc1c(/C=C/c2ccc(NS(C)(=O)=O)cc2)cc(-c2ccc[nH]c2=O)cc1C1(C(F)F)CC1 [I-270] |  |  | IC50 [1, 4]: 1 nM; IC50 ([2]; Hepatitis C virus, 72 h): 34.4 nM
33 | CC1(C)COc2c(/C=C/c3ccc(NS(C)(=O)=O)cc3)cc(-c3ccc[nH]c3=O)cc21 [II-1, N-(4-{(E)-2-[3,3-Dimethyl-5-(2-oxo-1,2-dihydro-pyridin-3-yl)-2,3-dihydro-benzofuran-7-yl]-vinyl}-phenyl)-methanesulfonamide] | 5 | 284 to 286 | 
34 | CC1(C)COc2c(-c3ccc[nH]c3=O)cc(/C=C/c3ccc(NS(C)(=O)=O)cc3)cc21 [II-2] | 6 | 231 to 233 | 
35 | CC1(C)COc2c(-c3ccc[nH]c3=O)cc(NC(=O)c3ccc(NS(C)(=O)=O)cc3)cc21 [II-4, N-[3,3-Dimethyl-7-(2-oxo-1,2-dihydro-pyridin-3-yl)-2,3-dihydro-benzofuran-5-yl]-4-methanesulfonylamino-benzamide] | 33 | > 300 | 
36 | COc1c(/C=C/c2ccc(NS(C)(=O)=O)cc2)cc(-c2ccc[nH]c2=O)c2c1C(C)(C)CC2 [II-5, N-(4-{(E)-2-[4-Methoxy-3,3-dimethyl-7-(2-oxo-1,2-dihydro-pyridin-3-yl)-indan-5-yl]-vinyl}-phenyl)-methanesulfonamide] |  | 283 to 286.6 | IC50 [1, 4]: 1 nM
